Assays:
physchem = details: pH 7.4
Protocol: Distribution coefficients (D) were measured at physiological pH by the shake-flask method at room temperature (21.0 ± 0.5 °C), employing n-octanol/50 mM MOPS buffer pH 7.4, 0.15 M KCl ionic strength as a biphasic solvent system, after mutual saturation by overnight stirring. A weighed amount of compound was dissolved in water-saturated n-octanol, a buffer was added, and the sample was stirred for 4 h to reach partition equilibrium. Partition phases were centrifuged (9000g, 10 min, 20 °C), separated, diluted with methanol, and dosed by HPLC-ESI-MS/MS.

U251 GBM cell line = test: MTT cell viability/proliferation assay on U251 glioblastoma cell line; type: cell-based; details: 30 μM, continuous exposure, time course vs control DMSO 0.3%
Protocol: Figure 12 reports the time course of cell growth compared to the control (DMSO 0.3% solution) in the presence of a compound concentration of 30 μM. […] Although additional investigations will be required to confirm this promising behavior, it could be speculated that the higher antiproliferative activity of UniPR1449 compared to that of […], and the reference antagonist UniPR1331, is due to its peculiar pharmacological profile at the level of Eph receptors.
Data are the means of at least three independent experiments ± standard deviation.
Figure S10. Cell viability assay performed using a MTT assay on U251 glioblastoma cell line treated with the approved drug temozolomide and the reference compound UniPR1331.

EphA2 [1] = biological target: T1, EphA2 (Mus musculus, UniProt Q03145); test: Surface plasmon resonance, steady-state analysis on immobilized EphA2-Fc; type: binding; details: EphA2-Fc on CM4 sensorchip; ± standard deviation; read-out: KD (SPR, steady-state)
Protocol: Increasing concentrations of the two compounds were injected over EphA2-Fc immobilized on the surface of a CM SPR4 sensorchip and evaluated for their interaction.
Surface plasmon resonance (SPR) measurements were performed on a BIAcore X100 instrument, using a carboxyl-methyl-dextran-coated sensorchip (CM4, GE-Healthcare).

EphA2 [2] = biological target: T1, EphA2; test: ELISA binding assay: displacement and saturation of biotinylated ephrin-A1-Fc on immobilized EphA2-Fc
Protocol: Compounds were added to the wells at proper concentrations in 0.5% DMSO and incubated at 37 °C for 1 h. Biotinylated ephrin-A1-Fc was added at 37 °C for 4 h. Data are the means of three independent experiments ± standard deviation.
The day after, wells were washed with a washing buffer (PBS 0.05% tween20, pH 7.5) and blocked with a blocking buffer solution (PBS 1% BSA) for 1 h at 37 °C. Compounds were added to the wells at a proper concentration in 0.5% DMSO and incubated at 37 °C for 1 h. […] After 4 h for displacement assays or 5 h for saturation studies, wells were washed and incubated with 100 μL/well Streptavidin-HRP (Sigma S5512) for 20 min at room temperature. Then, wells were washed again with a washing buffer and incubated at room temperature with 0.1 mg/mL tetramethylbenzidine (Sigma T2885) reconstituted in stable peroxide buffer (0,05 M citric acid +0,05 M dibasic sodium phosphate, pH 5). The reaction was quenched with 3 N HCl. Absorbance was read at 450 nm (ELISA plate reader). The IC50 and Ki values were determined using one-site competition nonlinear regression analysis with Prism software (GraphPad Software Inc.).

[3] = Rat liver microsome stability assay; type: in vitro ADME; details: liver microsomes, pH 7.4, 60 min at 37 °C, NADPH-generating system, read-out: compound recovery at 60 min in rat liver microsomes
Protocol: Experiments were performed as previously described.[59]

[4] = Rat plasma stability assay; details: 60 min at 37 °C, 1 μM
Protocol: Pooled plasma (400 μL) was incubated at 37 °C in the presence of 10 mM phosphate-buffered saline (PBS) pH 7.4. 5 μL of compound stock solution in DMSO (final DMSO concentration: 1%; final compound concentration: 1 μM) was added to start the rat plasma stability assay. […] At fixed time points, aliquots of 50 μL were taken, added with two volumes of CH3CN containing as internal standard the structural analogue UniPR126, centrifuged (16,000g, 5 min, 4 °C), and analyzed by HPLC-ESI-MS/MS. The responses (i.e., peak area ratios of test compound vs internal standard) were referred to the zero time-point samples (considered as 100%) to determine the percentage of remaining compound vs time.

EphB2 = biological target: T2, EphB2 (Mus musculus, UniProt P54763); test: ELISA binding assay: displacement and saturation of biotinylated ephrin-B1-Fc on immobilized EphB2; details: data not shown
T2 sequence (P54763 19-543): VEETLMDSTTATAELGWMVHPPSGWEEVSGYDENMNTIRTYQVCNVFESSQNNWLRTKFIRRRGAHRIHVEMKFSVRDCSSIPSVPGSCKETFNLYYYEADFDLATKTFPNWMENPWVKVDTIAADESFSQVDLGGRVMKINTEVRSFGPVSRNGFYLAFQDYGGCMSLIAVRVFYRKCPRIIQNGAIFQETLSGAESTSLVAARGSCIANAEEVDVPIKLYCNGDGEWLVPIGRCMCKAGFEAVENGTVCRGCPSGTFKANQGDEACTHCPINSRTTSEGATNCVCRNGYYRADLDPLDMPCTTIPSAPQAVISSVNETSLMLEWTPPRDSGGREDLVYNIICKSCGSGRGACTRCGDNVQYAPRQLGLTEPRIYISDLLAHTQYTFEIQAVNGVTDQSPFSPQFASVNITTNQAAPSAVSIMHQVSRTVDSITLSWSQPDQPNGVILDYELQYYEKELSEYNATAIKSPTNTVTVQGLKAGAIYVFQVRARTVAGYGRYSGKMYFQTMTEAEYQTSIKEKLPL

T1 sequence (Q03145 with tags, fused parts or gaps limits assumed): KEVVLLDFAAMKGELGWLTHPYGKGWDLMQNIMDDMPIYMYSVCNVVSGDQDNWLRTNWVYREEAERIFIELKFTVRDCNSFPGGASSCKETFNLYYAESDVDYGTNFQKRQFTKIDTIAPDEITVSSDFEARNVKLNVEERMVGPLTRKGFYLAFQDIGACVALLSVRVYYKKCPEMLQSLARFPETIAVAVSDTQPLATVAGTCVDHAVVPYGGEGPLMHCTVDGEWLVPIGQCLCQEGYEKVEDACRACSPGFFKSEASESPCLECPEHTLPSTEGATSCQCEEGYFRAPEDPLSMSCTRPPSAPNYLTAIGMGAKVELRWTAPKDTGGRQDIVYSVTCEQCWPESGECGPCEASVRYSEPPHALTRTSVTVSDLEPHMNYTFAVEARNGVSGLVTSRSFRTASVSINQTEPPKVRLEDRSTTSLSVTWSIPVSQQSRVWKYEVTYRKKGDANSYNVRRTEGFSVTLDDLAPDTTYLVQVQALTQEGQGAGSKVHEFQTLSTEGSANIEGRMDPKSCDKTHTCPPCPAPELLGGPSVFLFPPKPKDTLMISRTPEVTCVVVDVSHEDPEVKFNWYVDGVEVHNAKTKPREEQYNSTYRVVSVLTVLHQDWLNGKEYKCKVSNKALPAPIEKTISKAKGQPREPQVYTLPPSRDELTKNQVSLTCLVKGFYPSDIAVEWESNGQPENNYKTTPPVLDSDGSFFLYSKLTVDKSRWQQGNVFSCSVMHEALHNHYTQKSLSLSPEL

**Q.** Which results are given for CC(CCC(=O)NC(CC(=O)O)Cc1cn(S(=O)(=O)c2ccccc2)c2ccccc12)C1CCC2C3CC=C4CC(O)CCC4(C)C3CCC12C [UniPR1449, N-(3β-hydroxy-Δ^5-cholen-24-oyl)-1-benzensulfonyl-L-β-homotryptophan]?
**A.** logD at 4 h (physchem): 4.7 ± 0.11; effect on U251 cell growth (MTT) (U251 GBM cell line): fully blocked GBM growth; Kd (EphA2 [1]): 3800 ± 2400 nM; reversibility of binding to EphA2 (EphA2 [2]; 50 μM compound, with or without washing three times with PBS before ephrin-A1-Fc): reversible; Ki (EphA2 [2]; read-out: Ki for EphA2 (saturation curves of ephrin-A1-Fc, nonlinear regression)): 2200 nM; remaining at 60 min, 1 μM [3]: 62.2%; stability in rat plasma [4]: stable

**Q.** What does the source list for C[C@H](CCC(=O)N[C@H](CC(=O)O)Cc1c[nH]c2ccccc12)[C@H]1CCC2C3CC=C4C[C@@H](O)CC[C@]4(C)C3CC[C@@]21C (stereo partly drawn) [UniPR1447, N-(3β-hydroxy-Δ^5-cholen-24-oyl)-L-β-homotryptophan]?
**A.** reversibility of binding to EphB2 (EphB2): fully reversible; logD at 4 h (physchem): 4.6 ± 0.1; effect on U251 cell growth (MTT) (U251 GBM cell line): did not significantly affect U251 growth; remaining at 60 min, 1 μM [3]: 40.3%; stability in rat plasma [4]: stable

Reference: publication PMC10647059, “Molecular Determinants of EphA2 and EphB2 Antagonism Enable the Design of Ligands with Improved Selectivity” (Journal of Chemical Information and Modeling, 2023)
